The subject of this series is Human TK6 lymphoblasts. The experiment in a line: Induction of point mutation of genomic DNA by mutagen in cultured cells, detected by sequencing 100 copies of genomic DNA. The following applies: TK6 cells exposed to 0, 0.1, 0.3, 1, 3, 10 or 30 μM for 24 hours, collected day 7; variants with ratio 0.8 to 10% counted; three independent analyses; FIG. 2. It is filed as cell-based. As to the method: In Example 1, N-nitroso-N-methylurea (hereinafter referred to as “MNU”) that was a mutagen was administered to cultured cells, to induce a point mutation of genomic DNA. Then, mutation was detected by the detection method of this embodiment, and the appearance frequency of the mutation was calculated. This analysis was independently performed three times.
Human TK6 lymphoblasts (hereinafter, referred to as “TK6 cell”) were obtained from American Type Culture Collection. On day 0, 1×10^5 cells of TK6 cells were seeded on a 10 cm plate. On day 1, the TK6 cells were exposed to MNU (Sigma) in a concentration of 0, 0.1, 0.3, 1, 3, 10 or 30 μM for 24 hours. On day 7, the number of cells was counted, and the cells were collected. Then, genomic DNA was extracted by phenol/chloroform method.
The copy number of the extracted genomic DNA was determined quantitatively by real-time PCR using SYBR (registered trademark) green I (BioWhittaker Molecular Applications) and iCycler Thermal Cycler (Bio-Rad Laboratories, Inc.). In the table, “F” means a forward primer, and “R” means a reverse primer. Each sample was measured using three kinds of primers. […]
A sample containing 100 copies of genomic DNA was prepared, based on the measurement result of the copy number. […] The average number of reads of sequencing was 5,000. Among the analyzed 48,587 bases, 15,724 bases were selected. […]

Regarding `CN(N=O)C(N)=O` [MNU, N-nitroso-N-methylurea], the “appearance frequency of point mutation (somatic mutation induced by mutagen)” value was “correlation between the administration amount of MNU and the accumulation of mutations”.

Values taken from US20170101670A1, “METHOD FOR DETECTING RARE MUTATION” (NATIONAL CANCER CENTER, priority 2015, published 2017).
